Here are results for 39 compounds from patent publication US6881741B2 (ViroChem Pharma Inc., priority 2001, dated 2005).

In the first test the target is recombinant HCV NS5B (HCV RNA-dependent RNA polymerase) (Hepatitis C virus genotype 1b, UniProt P26663). Put plainly: biochemical. Particulars: HCV polymerase activity, list of compounds of Example 27; read-out: IC50 (polymerase activity).
Chain of recombinant HCV NS5B (HCV RNA-dependent RNA polymerase) (P26663 2420-3010 limits assumed): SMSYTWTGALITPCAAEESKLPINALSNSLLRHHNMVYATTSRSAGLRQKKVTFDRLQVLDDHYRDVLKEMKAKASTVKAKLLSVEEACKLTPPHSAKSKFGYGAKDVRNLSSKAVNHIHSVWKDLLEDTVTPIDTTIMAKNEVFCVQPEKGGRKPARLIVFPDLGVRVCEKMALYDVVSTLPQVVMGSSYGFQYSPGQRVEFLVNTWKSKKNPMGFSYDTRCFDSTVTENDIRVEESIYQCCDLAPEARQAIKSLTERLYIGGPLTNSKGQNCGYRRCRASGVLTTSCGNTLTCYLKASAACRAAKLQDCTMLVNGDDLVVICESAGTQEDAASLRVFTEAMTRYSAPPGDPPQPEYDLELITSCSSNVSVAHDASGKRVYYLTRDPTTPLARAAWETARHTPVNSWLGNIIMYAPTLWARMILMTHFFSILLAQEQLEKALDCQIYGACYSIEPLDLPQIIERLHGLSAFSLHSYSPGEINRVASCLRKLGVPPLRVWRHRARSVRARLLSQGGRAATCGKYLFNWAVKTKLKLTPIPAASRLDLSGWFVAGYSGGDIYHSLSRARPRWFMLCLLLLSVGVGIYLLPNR
A word on the IC50: it is the concentration needed to halve the response being measured. Take `CC(C)(C)c1ccc(CN(C(=O)C2CCCCC2)c2cc(-c3ccccc3)sc2C(=O)O)cc1` [Compound 441, 3-[(4-TERT-BUTYL-BENZYL)- CYCLOHEXANECARBONYL-AMINO]-5- PHENYL-THIOPHENE-2-CARBOXYLIC ACID]: the IC50 is less than 5 µM.
On the same count and under the same terms, the same measure for `Cc1ccc(S(=O)(=O)Nc2cc(-c3ccccc3)sc2C(N)=O)c(C)c1` [Compound 568, 3-(2,4-DIMETHYL- BENZENESULFONYLAMINO)-5-PHENYL- THIOPHENE-2-CARBOXYLIC ACID AMIDE]: 5 to 20 µM; for `O=C(O)c1sc(-c2ccccc2)cc1N(C(=O)c1ccc(Cl)cc1Cl)C(CO)CO` [Compound 518, 3-[(2,4-DICHLORO-BENZOYL)-(2- HYDROXY-1-HYDROXYMETHYL-ETHYL)- AMINO]-5-PHENYL-THIOPHENE-2- CARBOXYLIC ACID]: less than 5 µM; for `CC(C)N(C(=O)[C@H]1CC[C@H](C)C[C@H]1O)c1cc(-c2ccc(F)cc2)sc1C(=O)O` [Compound 560]: less than 5 µM.
As for `CN(C(=O)C1CCCC1)c1cc(-c2ccccc2)sc1C(=O)O` [Compound 497, 3-(CYCLOPENTANECARBONYL-METHYL- AMINO)-5-PHENYL-THIOPHENE-2- CARBOXYLIC ACID], the 50% inhibitory concentration (IC50) is less than 5 µM.
With `Cc1ccc(C(=O)N(c2cc(-c3ccccc3)sc2C(=O)O)C(C)C)c(/C=N/O)c1` [Compound 505, 3-{[2-(HYDROXYIMINO-METHYL)-4- METHYL-BENZOYL]-ISOPROPYL-AMINO)-5- PHENYL-THIOPHENE-2-CARBOXYLIC ACID], the IC50 was 5 to 20 µM.
Regarding `CC(=O)N(Cc1ccc(C(F)(F)F)cc1)c1cc(-c2ccccc2)sc1C(=O)O` [Compound 464, 3-[ACETYL-(4-TRIFLUOROMETHYL- BENZYL)-AMINO]-5-PHENYL-THIOPHENE- 2-CARBOXYLIC ACID], the half-inhibitory concentration (IC50) is 5 to 20 µM.
As for `CC(C)(C)OC(=O)N1CCC(N(C(=O)c2ccc(Cl)cc2Cl)c2cc(-c3ccccc3)sc2C(=O)O)C1` (stereo not drawn) [Compound 499, 3-[(2-CARBOXY-5-PHENYL-THIOPHEN-3- YL)-(2,4-DICHLORO-BENZOYL)-AMINO]- PYRROLIDINE-1-CARBOXYLIC ACID #TERT!-BUTYL ESTER], the IC50 is less than 5 µM.
As for `CC1CCC(C(=O)N(c2ccncc2)c2cc(-c3ccccc3)sc2C(=O)O)CC1` (stereo not drawn) [Compound 525, 3-[(4-METHYL- CYCLOHEXANECARBONYL)-PYRIDIN-4- YL-AMINO]-5-PHENYL-THIOPHENE-2- CARBOXYLIC ACID], the IC50 is less than 5 µM.
Take `COCC(C)N(C(=O)c1ccc(Cl)cc1Cl)c1cc(-c2ccccc2)sc1C(=O)O` (stereo not drawn) [Compound 561, 3-[(2,4-DICHLORO-BENZOYL)-(2- METHOXY-1-METHYL-ETHYL)-AMINO]-5- PHENYL-THIOPHENE-2-CARBOXYLIC ACID]: the IC50 was less than 5 µM.

The same test, now with this note: related polymerase activity (Example 27 list); read-out: IC50.
As for `Cc1cc(S(=O)(=O)Nc2cc(-c3ccc(F)cc3)sc2C(=O)O)c(C)cc1Cl` [Compound 8, 3-(4-CHLORO-2,5-DIMETHYL-BENZENESULFONYLAMINO)-5-(4-FLUORO-PHENYL)-THIOPHENE-2-CARBOXYLIC ACID], the IC50 is less than 5 µM.
On to `Cc1ccc(C(=O)N(C)c2cc(-c3cccc([N+](=O)[O-])c3)sc2C(=O)O)cc1` [Compound 196, 3-[METHYL-(4-METHYL-BENZOYL)-AMINO]-5-(3-NITRO-PHENYL)-THIOPHENE-2-CARBOXYLIC ACID], for which the IC50 was less than 5 µM.
With `Cc1ccc(C(=O)N(C)c2cc(-c3ccccc3C)sc2C(=O)O)cc1` [Compound 267, 3-[METHYL-(4-METHYL-BENZOYL)-AMINO]-5-O-TOLYL-THIOPHENE-2-CARBOXYLIC ACID], the IC50 was less than 5 µM.
In the case of `Cc1ccc(S(=O)(=O)Nc2cc(C(C)(C)C)sc2C(=O)O)c(C)c1` [Compound 315, 5-#TERT!-BUTYL-3-(2,4-DIMETHYL- BENZENESULFONYLAMINO)- THIOPHENE-2-CARBOXYLIC ACID], the half-inhibitory concentration (IC50) was in the range of 5 to 20 µM.
Consider `CC(C)(C)c1cc(NS(=O)(=O)c2ccc(Cl)cc2)c(C(=O)O)s1` [Compound 10, 5-TERT-BUTYL-3-(4-CHLORO-BENZENESULFONYLAMINO)-THIOPHENE-2-CARBOXYLIC ACID], for which the IC50 was less than 5 µM.
The same measure, in the same setting: next, `O=C(O)c1sc(-c2ccc(F)cc2)cc1NS(=O)(=O)c1ccccc1` [Compound 135, 3-BENZENESULFONYLAMINO-5-(4-FLUORO-PHENYL)-THIOPHENE-2-CARBOXYLIC ACID]: less than 5 µM; `Cc1ccc(C(=O)N(Cc2cccc(Cl)c2)c2cc(-c3ccccc3)sc2C(=O)O)cc1` [Compound 335, 3-[(3-CHLORO-BENZYL)-(4-METHYL- BENZOYL)-AMINO]-5-PHENYL- THIOPHENE-2-CARBOXYLIC ACID]: less than 5 µM; `Cc1cc(Br)ccc1S(=O)(=O)Nc1cc(-c2ccccc2)sc1C(=O)O` [Compound 220, 3-(4-BROMO-2-METHYL-BENZENESULFONYLAMINO)-5-PHENYL-THIOPHENE-2-CARBOXYLIC ACID]: less than 5 µM.
With `C#Cc1cc(NS(=O)(=O)c2ccccc2C)c(C(=O)O)s1` [Compound 80, 5-ETHYNYL-3-(TOLUENE-2-SULFONYLAMINO)-THIOPHENE-2-CARBOXYLIC ACID], the IC50 lay in the range of 5 to 20 µM.
For `C=CCN(C(=O)Cc1ccc(F)cc1Cl)c1cc(-c2ccccc2)sc1C(=O)O` [Compound 349, 3-{ALLYL-[2-(2-CHLORO-4-FLUORO- PHENYL)-ACETYL]-AMINO}-5-PHENYL- THIOPHENE-2-CARBOXYLIC ACID], the IC50 lay in the range of 5 to 20 µM.
As for `CC(C)N(C(=O)c1ccc(Cl)nc1)c1cc(-c2ccccc2)sc1C(=O)O` [Compound 246, 3-[(6-CHLORO-PYRIDINE-3-CARBONYL)-ISOPROPYL-AMINO]-5-PHENYL-THIOPHENE-2-CARBOXYLIC ACID], the IC50 is more than 20 µM.
Same read-out and setting: next, `COC(=O)c1sc(-c2ccccc2)cc1N(C(=O)c1ccc(Cl)cc1Cl)C(C)C` [Compound 287, 3-[(2,4-DICHLORO-BENZOYL)-ISOPROPYL-AMINO]-5-PHENYL-THIOPHENE-2-CARBOXYLIC ACID METHYL ESTER]: 5 to 20 µM.
The same measure, in the same setting: next, `CN(C(=O)c1ccc2ccccc2c1)c1cc(-c2ccccc2)sc1C(=O)O` [Compound 252, 3-[METHYL-(NAPHTHALENE-2-CARBONYL)-AMINO]-5-PHENYL-THIOPHENE-2-CARBOXYLIC ACID]: 5 to 20 µM; `COc1cccc(-c2cc(NS(=O)(=O)c3ccccc3C)c(C(=O)O)s2)c1` [Compound 123, 5-(3-METHOXY-PHENYL)-3-(TOLUENE-2-SULFONYLAMINO)-THIOPHENE-2-CARBOXYLIC ACID]: less than 5 µM; `O=C(O)c1sc(-c2ccccc2)cc1NS(=O)(=O)c1cc(F)ccc1F` [Compound 53, 3-(2,5-DIFLUORO-BENZENESULFONYLAMINO)-5-PHENYL-THIOPHENE-2-CARBOXYLIC ACID]: less than 5 µM.
`Cc1csc(C(=O)N(C)c2cc(-c3ccccc3)sc2C(=O)O)c1` [Compound 293, 3-[METHYL-(4-METHYL-THIOPHENE-2-CARBONYL)-AMINO]-5-PHENYL-THIOPHENE-2-CARBOXYLIC ACID]: the IC50 was 5 to 20 µM.
Regarding `O=C(O)c1sc(-c2ccccc2)cc1NS(=O)(=O)c1cc(Cl)c(O)c(Cl)c1` [Compound 169, 3-(3,5-DICHLORO-4-HYDROXY-BENZENESULFONYLAMINO)-5-PHENYL-THIOPHENE-2-CARBOXYLIC ACID], the concentration for half-maximal inhibition (IC50) fell in the range of 5 to 20 µM.
For the compound `CC(=O)N(Cc1ccc(Cl)cc1)c1cc(-c2ccccc2)sc1C(=O)O` [Compound 241, 3-[ACETYL-(4-CHLORO-BENZYL)-AMINO]-5-PHENYL-THIOPHENE-2-CARBOXYLIC ACID], the IC50 is 5 to 20 µM.
Same read-out and setting: the same measure for `C=CCN(C(=O)Cc1cccc(C)c1)c1cc(-c2ccccc2)sc1C(=O)O` [Compound 354, 3-[ALLYL-(2-M-TOLYL-ACETYL)-AMINO]-5- PHENYL-THIOPHENE-2-CARBOXYLIC ACID]: 5 to 20 µM; for `O=C(O)c1sc(-c2ccccc2)cc1NS(=O)(=O)c1ccc(C(F)(F)F)cn1` [Compound 98, 5-PHENYL-3-(5-TRIFLUOROMETHYL-PYRIDINE-2-SULFONYLAMINO)-THIOPHENE-2-CARBOXYLIC ACID]: 5 to 20 µM.
Take `CC(C)N(C(=O)c1ccc(Cl)cc1Cl)c1cc(-c2cccc(C(F)(F)F)c2)sc1C(=O)O` [Compound 359, 3-[(2,4-DICHLORO-BENZOYL)- ISOPROPYL-AMINO]-5-(3- TRIFLUOROMETHYL-PHENYL)- THIOPHENE-2-CARBOXYLIC ACID]: the IC50 is less than 5 µM.
Same read-out and setting: next, `O=C(O)c1sc(-c2ccccc2)cc1NS(=O)(=O)c1cccc(Cl)c1` [Compound 40, 3-(3-CHLORO-BENZENESULFONYLAMINO)-5-PHENYL-THIOPHENE-2-CARBOXYLIC ACID]: less than 5 µM; `C=CCN(C(=O)c1ccc(C)cc1)c1cc(-c2cccc(/C=C/C(=O)O)c2)sc1C(=O)O` [Compound 323, 3-[ALLYL-(4-METHYL-BENZOYL)-AMINO]- 5-[3-(2-CARBOXY-VINYL)-PHENYL]- THIOPHENE-2-CARBOXYLIC ACID]: 5 to 20 µM.
As for `O=C(O)c1sc(-c2ccccc2)cc1NS(=O)(=O)c1cccc(C(F)(F)F)c1` [Compound 50, 5-PHENYL-3-(3-TRIFLUOROMETHYL-BENZENESULFONYLAMINO)-THIOPHENE-2-CARBOXYLIC ACID], the 50% inhibitory concentration (IC50) was in the range of 5 to 20 µM.
Still for that read-out and setting: next, `O=C(Nc1cc(-c2ccccc2)sc1C(=O)O)c1cccs1` [Compound 74, 5-PHENYL-3-[(THIOPHENE-2-CARBONYL)-AMINO]-THIOPHENE-2-CARBOXYLIC ACID]: 5 to 20 µM; `Cc1ccccc1S(=O)(=O)Nc1cc(-c2cc(F)cc(F)c2)sc1C(=O)O` [Compound 69, 5-(3,5-DIFLUORO-PHENYL)-3-(TOLUENE-2-SULFONYLAMINO)-THIOPHENE-2-CARBOXYLIC ACID]: less than 5 µM.
`Cc1ccc(C(=O)N(Cc2cccc(C(C)(C)C)c2)c2cc(-c3ccccc3)sc2C(=O)O)cc1` [Compound 334, 3-[(3-TERT-BUTYL-BENZYL)-(4-METHYL- BENZOYL)-AMINO]-5-PHENYL- THIOPHENE-2-CARBOXYLIC ACID]: the IC50 is less than 5 µM.
For the compound `Cc1ccc(S(=O)(=O)Nc2cc(-c3ccccc3)sc2C(=O)O)c(C)c1` [Compound 136, 3-(2,4-DIMETHYL-BENZENESULFONYLAMINO)-5-PHENYL-THIOPHENE-2-CARBOXYLIC ACID], the IC50 is less than 5 µM.
As to `CCCCC(=O)N(C)c1cc(-c2ccccc2)sc1C(=O)O` [Compound 389, 3-(METHYL-PENTANOYL-AMINO)-5- PHENYL-THIOPHENE-2-CARBOXYLIC ACID], the 50% inhibitory concentration (IC50) was less than 5 µM.
